This is an account of results in patent publication US20130101634A1, “COMPOSITIONS AND METHODS FOR REDUCING MICROBIAL OVERGROWTH IN THE SMALL INTESTINES” (DEERLAND ENZYMES, INC., priority 2011, published 2013).

One test relates to Bacteroides fragilis. As to the kind of experiment: Growth curve (O.D. 600 over time) in nutrient broth. The note with it: 1 mg/ml in nutrient broth, alone or with 1 mg/ml EDTA, 37° C., FIGS. 2, 4, 6. The test is classed as cell-based. How it is done:
(§1) Growth Curves Since bacteria grow exponentially, it is useful to plot the logarithm of the relative population size [y=ln(NIN0)] against time. Frozen permanents of each strain were streaked for single colonies using nutrient agar plates warmed prior to use. Single bacterial cells were restreaked on a nutrient agar plate at 37° C. for 24 h to 72 h depending on strain. Cells of several well-grown colonies on the plate were added to 50 ml of nutrient broth with shaking at 37° C. until the culture reached the desired optical density. Ingredients of interest were slowly added while stirring at 37° C. […] Samples were taken at various time points and the optical density of the culture was obtained at 600 nm. All experiments were replicated twice.

The next test has as its system E. coli. The description is as above. It is filed as cell-based. The note with it: 1 mg/ml in nutrient broth, alone or with 1 mg/ml EDTA or citrate, 37° C., FIGS. 1, 3, 5. As to the method: as §1

Take lysozyme: the “cell growth (O.D. 600 as a function of time)” value was “cell growth is not totally eliminated and cell culture will recover” in the test on Bacteroides fragilis; “cell growth is not totally eliminated and cell culture will recover” with E. coli.
Turning to nisin, the “cell growth (O.D. 600 as a function of time)” value in the test with Bacteroides fragilis was “cell growth is not totally eliminated and cell culture will recover”; with E. coli, “cell growth is not totally eliminated and cell culture will recover”.
